Read-outs that look alike come from different tables or passages of the source. Blank lines part the entries; values can stand above or below the molecule they belong to.
Legend:
[1] = system: LCC6MDR cells; test: Tumor cell line cytotoxicity of flavonoid dimers, LCC6MDR; assay type: cell-based, human; settings: IC50 of compound alone, 72 hrs
In short: (§1)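 LCC6, LCC6MDR and L929 cells seeded at 1×10^4 cells/well and exposed to graded doses of flavonoid dimers. Incubation 72 hrs at 37° C., 5% CO2. Read-out: % survivors.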

[2] = system: LCC6 cells; test: Tumor cell line cytotoxicity of flavonoid dimers, LCC6; assay type: cell-based, human; settings: IC50 of compound alone, 72 hrs
In short: as §1

[3] = system: L929 cells; test: Cytotoxicity of flavonoid dimers, L929 mouse fibroblast; assay type: cell-based
In short: as §1

[4] = target: T1, Pgp (LCC6MDR cells) (Homo sapiens, UniProt P08183)
T1 sequence (P08183 whole entry): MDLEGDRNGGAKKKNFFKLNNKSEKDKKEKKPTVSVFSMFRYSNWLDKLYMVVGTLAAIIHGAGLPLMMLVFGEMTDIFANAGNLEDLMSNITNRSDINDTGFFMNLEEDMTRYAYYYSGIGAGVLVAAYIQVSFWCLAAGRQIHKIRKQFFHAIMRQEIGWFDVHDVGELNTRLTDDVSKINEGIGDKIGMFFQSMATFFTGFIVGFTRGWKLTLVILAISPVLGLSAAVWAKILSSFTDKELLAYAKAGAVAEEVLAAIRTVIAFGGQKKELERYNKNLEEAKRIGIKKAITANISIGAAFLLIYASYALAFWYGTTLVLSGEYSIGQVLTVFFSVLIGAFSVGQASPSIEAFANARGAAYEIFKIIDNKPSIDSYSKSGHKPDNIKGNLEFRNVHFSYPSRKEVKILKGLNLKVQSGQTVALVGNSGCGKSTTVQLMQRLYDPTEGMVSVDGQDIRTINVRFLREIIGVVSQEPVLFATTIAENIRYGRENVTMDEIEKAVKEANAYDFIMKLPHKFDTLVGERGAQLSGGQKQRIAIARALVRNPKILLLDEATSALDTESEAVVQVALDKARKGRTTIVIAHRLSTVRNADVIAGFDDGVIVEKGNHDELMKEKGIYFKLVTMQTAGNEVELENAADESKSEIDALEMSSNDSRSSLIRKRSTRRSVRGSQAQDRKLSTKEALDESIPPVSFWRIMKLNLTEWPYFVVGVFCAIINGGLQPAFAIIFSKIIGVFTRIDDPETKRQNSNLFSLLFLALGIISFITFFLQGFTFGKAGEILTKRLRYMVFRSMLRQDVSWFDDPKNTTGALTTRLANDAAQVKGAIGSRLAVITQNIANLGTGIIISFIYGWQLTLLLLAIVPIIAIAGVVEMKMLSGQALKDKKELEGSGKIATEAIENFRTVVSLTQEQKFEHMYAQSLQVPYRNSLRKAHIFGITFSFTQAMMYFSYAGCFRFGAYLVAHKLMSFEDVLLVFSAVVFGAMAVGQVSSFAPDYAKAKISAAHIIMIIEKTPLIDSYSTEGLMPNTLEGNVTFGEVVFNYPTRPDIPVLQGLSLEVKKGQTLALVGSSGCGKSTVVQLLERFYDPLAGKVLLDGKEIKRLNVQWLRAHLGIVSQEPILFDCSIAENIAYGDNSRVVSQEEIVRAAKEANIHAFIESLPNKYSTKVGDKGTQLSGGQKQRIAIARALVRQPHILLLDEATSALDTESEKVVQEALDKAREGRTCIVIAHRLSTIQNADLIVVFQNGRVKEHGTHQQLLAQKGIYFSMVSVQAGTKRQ
Procedure: (§3) Cell Proliferation Assay. 6,000 cells of LCC6 or LCC6MDR and anticancer drugs (paclitaxel, vinblastine, vincristine, doxorubicin and mitoxantrone) were mixed with or without modulators to a final volume of 200 μL in each well of 96-well plates. […] The plates were then incubated for 5 days at 37° C. […] IC50 values were calculated from the dose-response curves of MTS assays (Prism 4.0).

[5] = system: LCC6, LCC6MDR and L929 cell lines; test: Cytotoxicity over LCC6, LCC6MDR and L929 cell lines; assay type: cell-based, human, mouse
Procedure: (b) Tumor Cell Line Cytotoxicity. The tumor cytotoxicity assays of flavonoid dimers were performed against LCC6, LCC6MDR and L929 cell lines. The cells were grown in supplemented DMEM media in an atmosphere of 95% air and 5% CO2 at 37° C. In brief, LCC6, LCC6MDR and L929 cells were seeded into 96-well flat bottom microtiter plate at 1×10^4 cells per well in a final volume of 100 μL media, respectively. A graded dose of flavonoid dimers was added into wells. The plate was incubated at 37° C. for 72 hrs at the atmosphere 5% CO2 in the air. The % of survivors was determined.

[6] = system: LdAG83 promastigotes (wild type); test: In vitro anti-promastigote activity, LdAG83; assay type: cell-based, Leishmania donovani; settings: 3 days at 27° C., MTS; read-out: Anti-promastigotes activity (IC50, μM) LdAG83
In short: (§2)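 L. donovani (LdAG83 wild type, SSG-resistant Ld39) and L. major Lm50122 promastigotes were seeded at 1×10^5 per well with a concentration series of compound.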

[7] = system: Ld39 promastigotes (SSG-resistant); test: In vitro anti-promastigote activity, Ld39; assay type: cell-based, Leishmania donovani; settings: 3 days at 27° C., MTS; read-out: Anti-promastigotes activity (IC50, μM) Ld39
In short: as §2

[8] = system: Raw264.7 cells; test: Cytotoxicity, mouse macrophage Raw264.7; assay type: cell-based; settings: 72 hrs
In short: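 Raw264.7 (1×10^4 cells/well) and primary PEM cells (2×10^4 cells/well) in supplemented DMEM received graded compound doses and were incubated 72 h at 37 °C, 5% CO2. Percent survivors determined; cytotoxicity IC50 used for therapeutic index against antileishmanial IC50.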

[9] = target: T1, Pgp (LCC6MDR cells); test: Cell proliferation assay: Pgp-modulating activity, reversal of anticancer drug resistance in LCC6MDR cells; settings: for RF (Relative Fold), cpd at 0.5 μM: RF = (IC50 without modulator)/(IC50 with 0.5 μM modulator); for RF (Relative Fold), cpd at 0.5 μM / RF (Relative Fold), cpd at 1 μM: paclitaxel, LCC6MDR; for RF (Relative Fold), cpd at 1 μM: RF = (IC50 without modulator)/(IC50 with 1.0 μM modulator)
Procedure: as §3

[10] = system: Lm50122 promastigotes; test: In vitro anti-promastigote activity, Lm50122; assay type: cell-based, Leishmania major; settings: 3 days at 27° C., MTS; read-out: Anti-promastigotes activity (IC50, μM) Lm50122
Procedure: Cell Lines and Cell Culture. Promastigotes of Leishmania donovani (wild type LdAG83, pentamidine-resistant LdAG83-PentR50, and SSG-resistant Ld39) and Leishmania major [MHOM/IL/67/JERICHO II (Lm50122), from ATCC] were used in this study.
In Vitro Anti-Promastigote Activity. The viability of promastigotes was determined by the Cell Titer 96° Aqueous Assay (Promega) that employs a tetrazolium compound (MTS, 2-(4,5-Dimethylthiazol-2-yl-)-5-[3-(carboxymethoxy)phenyl]-2-(4-sulfophenyl)-2H-tetrazolium) and electron coupling reagent, phenazine methosulfate (PMS).^7 Promastigotes were seeded into 96-well flat bottom microtiter plate at 1×10^5 cells per well in a final volume of 100 μL medium and incubated with a series concentration of synthetic flavonoid dimers or known antileishmanials. The parasites were incubated at 27° C. for 72 hrs. Fresh solution of 2 mg/mL MTS and 0.92 mg/mL PMS were prepared in a ratio of 20:1 (MTS:PMS). After 72 hrs incubation, 10 μL of MTS:PMS mixture was added into each well of microtiter plate. The plate was then incubated at 27° C. for 4 hrs for color development. After 4 hrs incubation, the OD values were determined at 490 nm using automatic microtiter plate reader (Bio-Rad).

[11] = system: LCC6 cells; test: Doxorubicin accumulation in LCC6 cells; assay type: cell-based, human; settings: 1 μM
Text: Doxorubycin accumulation. […] […].

RF (Relative Fold), cpd at 0.5 μM [4]: (11.3)
Molecule: 1,13-Bis[4′-((5-hydroxy)-4H-chromen-4-on-2-yl)phenyl]-7-(tert-butyloxycarbonyl)-1,4,10,13-tetraoxa-7-azamidecane [Compound 16f]
IC50 [1]: > 100 µM
IC50 [2]: > 100 µM
IC50 [3]: > 100 µM

Molecule: CCN(CCOCCOc1ccc(-c2cc(=O)c3ccccc3o2)cc1)CCOCCOc1ccc(-c2cc(=O)c3ccccc3o2)cc1 [Compound 13, 1,13-Bis[4′-(4H-chromen-4-on-2-yl)phenyl]-N-(ethyl)-1,4,10,13-tetraoxa-7-azamidecane]
IC50 [1]: 17.3 ± 3.8 µM
IC50 [2]: 10.3 ± 2.2 µM
IC50 [3]: 6.9 ± 2 µM
IC50 [5]: 6.9 to 17.3 µM
IC50 [6]: 3.2 ± 0.8 µM
IC50 [7]: 5.5 ± 1.1 µM
IC50 [8]: 8.3 ± 1 µM
EC50 [4]: 0.2 µM
Therapeutic index ([9]; IC50 of compounds for L929/EC50 of compounds for lowering paclitaxel drug resistance): 34.5
RF (Relative Fold), cpd at 0.5 μM [9]: (26.9)

Molecule: O=c1cc(-c2ccc(OCCOCCN(CCO)CCOCCOc3ccc(-c4cc(=O)c5ccccc5o4)cc3)cc2)oc2ccccc12 [Compound 14, 1,13-Bis[4′-(4H-chromen-4-on-2-yl)phenyl]-N-(2-hydroxyethyl)-1,4,10,13-tetraoxa-7-azamidecane]
IC50 [1]: 14.8 ± 5.9 µM
IC50 [2]: 10.7 ± 3.3 µM
IC50 [3]: 6.9 ± 1.4 µM
IC50 [5]: 6.9 to 14.8 µM
IC50 [6]: 3.2 ± 1.1 µM
IC50 [7]: 7.2 ± 2.2 µM
IC50 [8]: 6.4 ± 1.5 µM
RF (Relative Fold), cpd at 0.5 μM [9]: (5.0)

Molecule: CCOC(=O)CCN(CCOCCOc1ccc(-c2cc(=O)c3ccccc3o2)cc1)CCOCCOc1ccc(-c2cc(=O)c3ccccc3o2)cc1 [Compound 15, 1,13-Bis[4′-(4H-chromen-4-on-2-yl)phenyl]-N-(3-ethoxy-3-oxopropyl)-1,4,10,13-tetraoxa-7-azamidecane]
IC50 [1]: 17.7 ± 3.7 µM
IC50 [2]: 13.5 ± 0.5 µM
IC50 [3]: 18.1 ± 3.4 µM
IC50 [5]: 13.5 to 17.7 µM
IC50 [6]: 3.8 ± 0.8 µM
IC50 [7]: 6.6 ± 0.2 µM
RF (Relative Fold), cpd at 0.5 μM [9]: (5.3)

RF (Relative Fold), cpd at 0.5 μM [4]: (1.1)
Molecule: CC(C)(C)OC(=O)N(CCOCCOc1ccc(-c2cc(=O)c3c(OCc4ccccc4)cccc3o2)cc1)CCOCCOc1ccc(-c2cc(=O)c3c(OCc4ccccc4)cccc3o2)cc1 [Compound 16e, 1,13-Bis[4′-((5-benzyloxy)-4H-chromen-4-on-2-yl)phenyl]-7-(tert-butyloxycarbonyl)-1,4,10,13-tetraoxa-7-azamidecane]
IC50 [1]: > 100 µM
IC50 [2]: > 100 µM

RF (Relative Fold), cpd at 1 μM [4]: 1.2
Molecule: CC(C)(C)OC(=O)N(CCOCCOc1ccc(-c2oc3ccccc3c(=O)c2OCc2ccccc2)cc1)CCOCCOc1ccc(-c2oc3ccccc3c(=O)c2OCc2ccccc2)cc1 [Compound 16g, 1,13-Bis[4′-((3-benzyloxy)-4H-chromen-4-on-2-yl)phenyl]-7-(tert-butyloxycarbonyl)-1,4,10,13-tetraoxa-7-azamidecane]

Molecule: Cc1ccc2oc(-c3ccc(OCCOCCN(CCOCCOc4ccc(-c5cc(=O)c6cc(C)ccc6o5)cc4)C(=O)OC(C)(C)C)cc3)cc(=O)c2c1 [Compound 17c, 1,13-Bis[4′-((6-methyl)-4H-chromen-4-on-2-yl)phenyl]-N-(tert-butyloxycarbonyl)-1,4,10,13-tetraoxa-7-azamidecane]
IC50 [1]: > 100 µM
IC50 [2]: > 100 µM
IC50 [3]: > 100 µM
IC50 [5]: > 100 µM
IC50 [6]: 21 µM
IC50 [7]: 100 µM
IC50 [10]: > 100 µM
IC50 [8]: > 100 µM
RF (Relative Fold), cpd at 0.5 μM [9]: (9.6)
RF (Relative Fold), cpd at 1 μM [9]: (139.2)
RF (Relative Fold), cpd at 1 μM ([9]; listed as 17): 139.0

Molecule: Cc1ccc(S(=O)(=O)N(CCOCCOc2ccc(-c3cc(=O)c4ccccc4o3)cc2)CCOCCOc2ccc(-c3cc(=O)c4ccccc4o3)cc2)cc1 [Compound 25a, 1,13-Bis[4′-(4H-chromen-4-on-2-yl)phenyl]-N-(4-methylbenzenesulfonyl)-1,4,10,13-tetraoxa-7-azamidecane]
IC50 [1]: > 100 µM
IC50 [2]: > 100 µM
IC50 [3]: > 100 µM
IC50 [6]: 100 µM
IC50 [7]: > 100 µM
IC50 [8]: > 100 µM
RF (Relative Fold), cpd at 0.5 μM [9]: (5.8)

Molecule: COc1ccc(CCN(C)CCCC(C#N)(c2ccc(OC)c(OC)c2)C(C)C)cc1OC (stereo not shown) [Verapamil, verapamil, reference compound]
Effect on intracellular doxorubicin accumulation in parental LCC6 [11]: does not increase
